Measured values as given in US12677847B2, “Methods and formulations for reducing bovine emissions” (Elanco US Inc., priority 2015, dated 2026).

Experiments:
cattle [1] = test: Reduction of carbon dioxide gas emissions from cattle fed lubabegron for 14 days in individual chambers; type: in vivo
Text: Prepare lubabegron (L) as 4.5 g/lb of Type A Medicated Article. In an appropriate facility having cattle chambers or rooms for individual animals (chambers), test ten cycles of twelve cattle each, each cycle representing all dose (0, 1.25, 5, and 20 g/ton) with a mixture of genders (steer and heifer).
Upon receipt of the cattle, allocate the cattle to chambers to acclimate for 7 days. After the acclimation phase, for 14 days orally treat via feed one fourth of the cattle allocated to chambers L 0 g/ton/day; one fourth 1.25 g/ton/day; 5 g/ton/day; and 20 g/ton/day (100% dry matter basis). Provide feed and water ad libitum. On day 14, collect body weight and load cattle for transport to the slaughter facility. On day 15, slaughter the cattle and evaluate the carcass. During the study, monitor and collect carbon dioxide gas emissions data. […] Using the process described above, the following results are achieved.

cattle [2] = test: Reduction of ammonia gas emissions from cattle fed lubabegron for 91 days in cattle pen enclosures; type: in vivo
Text: Prepare lubabegron (L) as 4.5 g/lb of Type A Medicated Article. In a facility having at least eight cattle pen enclosures (CPEs), test two cycles of cattle, each cycle representing all dose (0, 1.25, 5, and 20 g/ton) and gender (steer and heifer) combinations. For the purpose of this example, a cycle refers to a group of 112 animals housed concurrently. Within each cycle, there are 2 cohorts of animals (56 animals per cohort). A cohort refers to a group of same gender animals representing each of the 4 doses. Up to 4 cycles are used to provide a total of 4 cohorts per gender.
Upon receipt of the cattle, allocate the cattle to CPEs to acclimate for 7 days. After the acclimation phase, for 91 days orally treat via feed one fourth of the cattle allocated to CPEs L 0 g/ton/day; one fourth 1.25 g/ton/day; 5 g/ton/day; and 20 g/ton/day (100% dry matter basis). Provide feed and water ad libitum. On day 91, collect body weight and load cattle for transport to the slaughter facility. On day 92, slaughter the cattle and evaluate the carcass. During the study, monitor and collect ammonia gas emissions data. Measure the ammonia emissions over the treatment period and normalize by body weight (BW) for the period (Days 0-7, 0-14, 0-28, 0-56, and 0-91) and hot carcass weight (HCW) (Days 0-91) (g of gas/animal; g of gas/lb of live BW; g of gas/lb of HCW). Using the process described above, the following results are achieved.

For `CC(C)(Cc1ccc(Oc2ncccc2C#N)cc1)NC[C@H](O)COc1ccccc1-c1cccs1` [lubabegron], the “Reduction, as compared to control, g of CO2 gas/animal” value (“Reduction … of CO2 gas/animal” for short) (cattle [1]; 1.25 g/ton in feed, Day 0-7) was “(0.2%)”, the “Reduction, as compared to control, g of CO2 gas/lb of live BW” value (“Reduction … of CO2 gas/lb of live BW” below) (cattle [1]; 1.25 g/ton in feed, Day 0-7) was 0% and the “Reduction … of CO2 gas/animal” value (cattle [1]; 1.25 g/ton in feed, Day 0-14) was “(3%)”. For the same compound, the “Reduction, as compared to control, g of CO2 gas/lb of HCW” value (from here on “Reduction … of CO2 gas/lb of HCW”) (cattle [1]; 1.25 g/ton in feed, Day 0-14) was 4%, the “Reduction … of CO2 gas/lb of live BW” value (cattle [1]; 1.25 g/ton in feed, Day 0-14) was 2% and the “Reduction … of CO2 gas/animal” value (cattle [1]; 1.25 g/ton in feed, Day 7-14) was “(5%)”. The “Reduction … of CO2 gas/lb of HCW” value (cattle [1]; 1.25 g/ton in feed, Day 7-14) was 6%, the “Reduction … of CO2 gas/lb of live BW” value (cattle [1]; 1.25 g/ton in feed, Day 7-14) was 5% and the “Reduction … of CO2 gas/animal” value (cattle [1]; 5 g/ton in feed, Day 0-7) was “(4%)”. For the same compound, the “Reduction … of CO2 gas/lb of live BW” value (cattle [1]; 5 g/ton in feed, Day 0-7) was 3%, the “Reduction … of CO2 gas/animal” value (cattle [1]; 5 g/ton in feed, Day 0-14) was “(7%)” and the “Reduction … of CO2 gas/lb of HCW” value (cattle [1]; 5 g/ton in feed, Day 0-14) was 7%. The “Reduction … of CO2 gas/lb of live BW” value (cattle [1]; 5 g/ton in feed, Day 0-14) was 6%, the “Reduction … of CO2 gas/animal” value (cattle [1]; 5 g/ton in feed, Day 7-14) was “(10%)” and the “Reduction … of CO2 gas/lb of HCW” value (cattle [1]; 5 g/ton in feed, Day 7-14) was 10%. For the same compound, the “Reduction … of CO2 gas/lb of live BW” value (cattle [1]; 5 g/ton in feed, Day 7-14) was 9%, the “Reduction … of CO2 gas/animal” value (cattle [1]; 20 g/ton in feed, Day 0-7) was “(4%)” and the “Reduction … of CO2 gas/lb of live BW” value (cattle [1]; 20 g/ton in feed, Day 0-7) was 4%. For the same compound, the “Reduction … of CO2 gas/animal” value (cattle [1]; 20 g/ton in feed, Day 0-14) was “(7%)”, the “Reduction … of CO2 gas/lb of HCW” value (cattle [1]; 20 g/ton in feed, Day 0-14) was 7% and the “Reduction … of CO2 gas/lb of live BW” value (cattle [1]; 20 g/ton in feed, Day 0-14) was 6%. For the same compound, the “Reduction … of CO2 gas/animal” value (cattle [1]; 20 g/ton in feed, Day 7-14) was “(9%)”, the “Reduction … of CO2 gas/lb of HCW” value (cattle [1]; 20 g/ton in feed, Day 7-14) was 10% and the “Reduction … of CO2 gas/lb of live BW” value (cattle [1]; 20 g/ton in feed, Day 7-14) was 9%. The “Reduction, as compared to control, g of NH3 gas/animal” value (“Reduction … of NH3 gas/animal” for short) (cattle [2]; 1.25 g/ton in feed, Day 0-7) was 5% (5%), the “Reduction, as compared to control, g of NH3 gas/lb of live BW” value (“Reduction … of NH3 gas/lb of live BW” below) (cattle [2]; 1.25 g/ton in feed, Day 0-7) was 5% (5%) and the “Reduction … of NH3 gas/animal” value (cattle [2]; 1.25 g/ton in feed, Day 0-14) was 12%. The “Reduction … of NH3 gas/lb of live BW” value (cattle [2]; 1.25 g/ton in feed, Day 0-14) was 14%, the “Reduction … of NH3 gas/animal” value (cattle [2]; 1.25 g/ton in feed, Day 0-28) was 15% and the “Reduction … of NH3 gas/lb of live BW” value (cattle [2]; 1.25 g/ton in feed, Day 0-28) was 16%. The “Reduction … of NH3 gas/animal” value (cattle [2]; 1.25 g/ton in feed, Day 0-56) was 11%, the “Reduction … of NH3 gas/lb of live BW” value (cattle [2]; 1.25 g/ton in feed, Day 0-56) was 13% and the “Reduction … of NH3 gas/animal” value (cattle [2]; 1.25 g/ton in feed, Day 0-91) was 9%. For the same compound, the “Reduction, as compared to control, g of NH3 gas/lb of HCW” value (from here on “Reduction … of NH3 gas/lb of HCW”) (cattle [2]; 1.25 g/ton in feed, Day 0-91) was 13%, the “Reduction … of NH3 gas/lb of live BW” value (cattle [2]; 1.25 g/ton in feed, Day 0-91) was 11% and the “Reduction … of NH3 gas/animal” value (cattle [2]; 5 g/ton in feed, Day 0-7) was 7%. For the same compound, the “Reduction … of NH3 gas/lb of live BW” value (cattle [2]; 5 g/ton in feed, Day 0-7) was 8%, the “Reduction … of NH3 gas/animal” value (cattle [2]; 5 g/ton in feed, Day 0-14) was 16% and the “Reduction … of NH3 gas/lb of live BW” value (cattle [2]; 5 g/ton in feed, Day 0-14) was 17%. The “Reduction … of NH3 gas/animal” value (cattle [2]; 5 g/ton in feed, Day 0-28) was 20%, the “Reduction … of NH3 gas/lb of live BW” value (cattle [2]; 5 g/ton in feed, Day 0-28) was 21% and the “Reduction … of NH3 gas/animal” value (cattle [2]; 5 g/ton in feed, Day 0-56) was 16%. For the same compound, the “Reduction … of NH3 gas/lb of live BW” value (cattle [2]; 5 g/ton in feed, Day 0-56) was 18%, the “Reduction … of NH3 gas/animal” value (cattle [2]; 5 g/ton in feed, Day 0-91) was 12% and the “Reduction … of NH3 gas/lb of HCW” value (cattle [2]; 5 g/ton in feed, Day 0-91) was 16%. For the same compound, the “Reduction … of NH3 gas/lb of live BW” value (cattle [2]; 5 g/ton in feed, Day 0-91) was 14%, the “Reduction … of NH3 gas/animal” value (cattle [2]; 20 g/ton in feed, Day 0-7) was 21% and the “Reduction … of NH3 gas/lb of live BW” value (cattle [2]; 20 g/ton in feed, Day 0-7) was 22%. For the same compound, the “Reduction … of NH3 gas/animal” value (cattle [2]; 20 g/ton in feed, Day 0-14) was 27% (27%), the “Reduction … of NH3 gas/lb of live BW” value (cattle [2]; 20 g/ton in feed, Day 0-14) was 27% (27%) and the “Reduction … of NH3 gas/animal” value (cattle [2]; 20 g/ton in feed, Day 0-28) was 25%. For the same compound, the “Reduction … of NH3 gas/lb of live BW” value (cattle [2]; 20 g/ton in feed, Day 0-28) was 26%, the “Reduction … of NH3 gas/animal” value (cattle [2]; 20 g/ton in feed, Day 0-56) was 19% (19%) and the “Reduction … of NH3 gas/lb of live BW” value (cattle [2]; 20 g/ton in feed, Day 0-56) was 19% (19%). The “Reduction … of NH3 gas/animal” value (cattle [2]; 20 g/ton in feed, Day 0-91) was 13%, the “Reduction … of NH3 gas/lb of HCW” value (cattle [2]; 20 g/ton in feed, Day 0-91) was 17% and the “Reduction … of NH3 gas/lb of live BW” value (cattle [2]; 20 g/ton in feed, Day 0-91) was 15%.
